Test system: ddY mice
Test: Oxylipin analysis of plasma and brain regions of juvenile offspring after maternal glyphosate exposure
Assay type: in vivo, mouse
Conditions: juvenile offspring (P28), maternal 0.095% glyphosate
Source text: Collection of blood and brain samples and oxylipin analysis. Water or 0.095% glyphosate was given to pregnant mice from E5 to P21, as described above. The male offspring were separated from their mothers at weaning (P21). At juvenile (P28) stage, mice were deeply anesthetized with isoflurane and plasma was collected. Subsequently, brains were removed from the skulls. For Western blot analysis, brain regions such as prefrontal cortex (PFC), hippocampus, and striatum, were dissected from brain on ice. The samples were stored at −80° C. before assay. For oxylipin analysis, plasma was collected after isoflurane anesthesia at juvenile (P28) stage. Subsequently, PFC, hippocampus, and striatum were dissected from brain on ice, and the samples were stored at −80° C. before assay. Measurement of eicosanoids in the plasma and brain regions was performed at UC Davis using the previous method (4).

With O=C(O)CNCP(=O)(O)O [glyphosate] the “4,5-DiHDPE level” value (PFC) was 1.083 ± 0.242 pmol/g, the “5(6)-EpETrE level” value (PFC) was 3862.881 ± 1353.639 pmol/g and the “5,6-DiHETrE level” value (PFC) was 0.699 ± 0.113 pmol/g. It also gave a 5-HEPE level (PFC) of 1.760 ± 0.234 pmol/g, a 5-HETE level (PFC) of 18.560 ± 1.797 pmol/g and a 5-oxo-ETE level (PFC) of 142.497 ± 16.459 pmol/g. The 6-keto-PGF1a level (PFC) was 88.691 ± 7.208 pmol/g, the “7(8)-EpDPE level” value (PFC) was 3640.707 ± 1175.101 pmol/g and the “8(9)-EpETE level” value (PFC) was 1.992 ± 0.638 pmol/g. For the same compound, the “8(9)-EpETrE alt level” value (PFC) was 447.323 ± 148.765 pmol/g, the “8(9)-EpETrE level” value (PFC) was 12713.4 ± 6124.0 pmol/g and the 8-HEPE level (PFC) was 0.959 ± 0.080 pmol/g. For the same compound, the 8-HETE level (PFC) was 7.904 ± 0.840 pmol/g, the “9(10)-EpOME level” value (PFC) was 57.775 ± 18.915 pmol/g and the “9,10,13-TriHOME level” value (PFC) was 31.772 ± 4.440 pmol/g. For the same compound, the “9,12,13-TriHOME level” value (PFC) was 52.749 ± 6.979 pmol/g, the 9-HETE level (PFC) was 1.826 ± 0.587 pmol/g and the 9-HODE level (PFC) was 32.184 ± 2.752 pmol/g. For the same compound, the “10(11)-EpDPE level” value (PFC) was 270.138 ± 86.641 pmol/g, the “11(12)-EpETE level” value (PFC) was 2.775 ± 0.733 pmol/g and the “11(12)-EpETrE level” value (PFC) was 1128.684 ± 354.042 pmol/g. The “11,12-,15-TriHETrE level” value (PFC) was 27.925 ± 2.262 pmol/g, the “11,12-DiHETrE level” value (PFC) was 1.383 ± 0.124 pmol/g and the 11-HETE level (PFC) was 275.604 ± 19.707 pmol/g. The “12(13)-EpOME level” value (PFC) was 67.240 ± 21.629 pmol/g, the 12-HEPE level (PFC) was 6.850 ± 1.105 pmol/g and the 12-HETE level (PFC) was 448.365 ± 69.003 pmol/g. For the same compound, the 12-oxo-ETE level (PFC) was 2140.116 ± 142.081 pmol/g, the “13(14)-EpDPE level” value (PFC) was 190.175 ± 59.161 pmol/g and the “13,14-DiHDPE level” value (PFC) was 0.851 ± 0.076 pmol/g. For the same compound, the 13-HODE level (PFC) was 45.239 ± 3.261 pmol/g, the “14(15)-EpETE level” value (PFC) was 1.633 ± 0.487 pmol/g and the “14(15)-EpETrE level” value (PFC) was 1037.632 ± 291.994 pmol/g. For the same compound, the “14,15-DiHETrE level” value (PFC) was 2.498 ± 0.243 pmol/g, the “15(16)-EpODE level” value (PFC) was 0.500 ± 0.121 pmol/g and the “15(S)-HETrE level” value (PFC) was 11.900 ± 1.029 pmol/g. For the same compound, the 15-HETE level (PFC) was 313.016 ± 24.240 pmol/g, the 15-oxo-ETE level (PFC) was 10.104 ± 1.289 pmol/g and the “16(17)-EpDPE level” value (PFC) was 195.454 ± 58.684 pmol/g. For the same compound, the “16,17-DiHDPE level” value (PFC) was 1.154 ± 0.110 pmol/g, the “17(18)-EpETE level” value (PFC) was 3.729 ± 1.017 pmol/g and the 17-HDoHE level (PFC) was 6200.527 ± 739.211 pmol/g. The “19(20)-EpDPE level” value (PFC) was 353.450 ± 99.156 pmol/g, the “19,20-DiHDPE level” value (PFC) was 7.491 ± 0.703 pmol/g and the EKODE level (PFC) was 12.663 ± 1.143 pmol/g. It also gave an LTB3 level (PFC) of 53.423 ± 26.072 pmol/g, a PGD2 level (PFC) of 439.532 ± 37.011 pmol/g and a PGE2 level (PFC) of 137.389 ± 14.051 pmol/g. The PGF2a level (PFC) was 431.431 ± 34.510 pmol/g, the TXB2 level (PFC) was 246.160 ± 16.777 pmol/g and the “4,5-DiHDPE level” value (hippocampus) was 1.572 ± 0.704 pmol/mL. The “5(6)-EpETrE level” value (hippocampus) was 917.184 ± 134.826 pmol/mL, the “5,6-DiHETrE level” value (hippocampus) was 0.470 ± 0.051 pmol/mL and the 5-HEPE level (hippocampus) was 2.917 ± 0.708 pmol/mL. For the same compound, the 5-HETE level (hippocampus) was 16.705 ± 0.992 pmol/mL, the 5-oxo-ETE level (hippocampus) was 94.461 ± 9.488 pmol/mL and the 6-keto-PGF1a level (hippocampus) was 113.103 ± 15.509 pmol/mL. For the same compound, the “7(8)-EpDPE level” value (hippocampus) was 460.824 ± 81.977 pmol/mL, the “8(9)-EpETE level” value (hippocampus) was 3.435 ± 0.784 pmol/mL and the “8(9)-EpETrE alt level” value (hippocampus) was 89.694 ± 12.609 pmol/mL. For the same compound, the “8(9)-EpETrE level” value (hippocampus) was 971.2 ± 484.7 pmol/mL, the 8-HEPE level (hippocampus) was 1.415 ± 0.182 pmol/mL and the 8-HETE level (hippocampus) was 5.383 ± 0.796 pmol/mL. For the same compound, the “9(10)-EpOME level” value (hippocampus) was 9.131 ± 1.032 pmol/mL, the “9,10,13-TriHOME level” value (hippocampus) was 29.123 ± 5.450 pmol/mL and the “9,12,13-TriHOME level” value (hippocampus) was 51.599 ± 10.194 pmol/mL. The 9-HETE level (hippocampus) was 2.073 ± 0.532 pmol/mL, the 9-HODE level (hippocampus) was 31.282 ± 6.681 pmol/mL and the “10(11)-EpDPE level” value (hippocampus) was 40.179 ± 5.185 pmol/mL. The “11(12)-EpETE level” value (hippocampus) was 1.254 ± 0.537 pmol/mL, the “11(12)-EpETrE level” value (hippocampus) was 254.371 ± 33.701 pmol/mL and the “11,12-,15-TriHETrE level” value (hippocampus) was 20.278 ± 1.789 pmol/mL. For the same compound, the “11,12-DiHETrE level” value (hippocampus) was 0.914 ± 0.053 pmol/mL, the 11-HETE level (hippocampus) was 261.315 ± 27.149 pmol/mL and the “12(13)-EpOME level” value (hippocampus) was 11.355 ± 1.474 pmol/mL. The 12-HEPE level (hippocampus) was 9.094 ± 3.984 pmol/mL, the 12-HETE level (hippocampus) was 131.250 ± 40.185 pmol/mL and the 12-oxo-ETE level (hippocampus) was 1245.436 ± 206.406 pmol/mL. For the same compound, the “13(14)-EpDPE level” value (hippocampus) was 27.748 ± 3.955 pmol/mL, the “13,14-DiHDPE level” value (hippocampus) was 0.516 ± 0.089 pmol/mL and the 13-HODE level (hippocampus) was 54.648 ± 8.929 pmol/mL. The “14(15)-EpETE level” value (hippocampus) was 0.712 ± 0.184 pmol/mL, the “14(15)-EpETrE level” value (hippocampus) was 241.703 ± 26.592 pmol/mL and the “14,15-DiHETrE level” value (hippocampus) was 1.183 ± 0.095 pmol/mL. The “15(16)-EpODE level” value (hippocampus) was 2.750 ± 0.907 pmol/mL, the “15(S)-HETrE level” value (hippocampus) was 7.994 ± 1.430 pmol/mL and the 15-HETE level (hippocampus) was 263.402 ± 29.963 pmol/mL. The 15-oxo-ETE level (hippocampus) was 8.232 ± 0.652 pmol/mL, the “16(17)-EpDPE level” value (hippocampus) was 29.112 ± 4.286 pmol/mL and the “16,17-DiHDPE level” value (hippocampus) was 0.675 ± 0.093 pmol/mL. For the same compound, the “17(18)-EpETE level” value (hippocampus) was 1.592 ± 0.499 pmol/mL, the 17-HDoHE level (hippocampus) was 5997.276 ± 762.508 pmol/mL and the “19(20)-EpDPE level” value (hippocampus) was 55.856 ± 8.656 pmol/mL. The “19,20-DiHDPE level” value (hippocampus) was 5.359 ± 0.322 pmol/mL, the EKODE level (hippocampus) was 11.362 ± 1.014 pmol/mL and the LTB3 level (hippocampus) was 13.669 pmol/mL. For the same compound, the PGD2 level (hippocampus) was 349.020 ± 34.288 pmol/mL, the PGE2 level (hippocampus) was 68.947 ± 7.203 pmol/mL and the PGF2a level (hippocampus) was 314.752 ± 30.178 pmol/mL. The TXB2 level (hippocampus) was 198.203 ± 24.835 pmol/mL.

From US12357598B2, “Treatment of neurodevelopmental disorders” (THE REGENTS OF THE UNIVERSITY OF CALIFORNIA, priority 2018, dated 2025)
